# Test results reported in patent US20260001875A1, “AMINOPYRIMIDINYL DERIVATIVES FOR THE TREATMENT OF PARKINSON'S DISEASE” (UNIVERSITY OF DUNDEE, priority 2022, published 2026).
# Entries after “also recorded” stand apart in the source; their conditions may differ.
# Columns and labels:
# Rab10 pThr73 = assay: Rab10 Thr73 dephosphorylation in PBMC; type: cell-based, human; conditions: for EC50: Homo sapiens, PBMC
# Experimental: (§1) PBMC cells were separated from human blood following existing protocol (dx.doi.org/10.17504/protocols.io.bnhxmb7n) and pelleted by centrifugation at 1000 g for 2 min. The supernatant was discarded and the PBMC pellet was resuspended in PBS containing 2% FBS for washing. The suspension was centrifuged at 1000 g for 2 min again and the PBMC pellet was resuspended in RPMI-1640 (Gibco) media supplemented with 10% FBS. The cells were then seeded into 6-well plates and treated with testing compounds at indicated concentrations and time period. After treatment, the cells were collected into 2-ml Eppendorf tube and centrifuged at 500 g for 2 min to pellet the cells, the supernatant was discarded, and the pellet was resuspended in 1 ml PBS and centrifuged at 500 g for 2 min again. The PBMC pellet was lysed with 60 μL of lysis buffer containing 50 mM Tris-HCl, pH 7.5, 1% (v/v) Triton X-100, 1 mM EGTA, 1 mM sodium orthovanadate, 50 mM NaF, 0.1% (v/v) 2-mercaptoethanol, 10 mM 2-glycerophosphate, 5 mM sodium pyrophosphate, 0.1 μg/ml mycrocystin-LR (Enzo Life Sciences), 270 mM sucrose, 0.5 mM DIFP (Sigma, Cat #D0879) in addition to Complete EDTA-free protease inhibitor cocktail (Sigma-Aldrich Cat #11836170001). DIFP is highly toxic and must be prepared in a fume hood to a stock solution of 0.5 M in isopropanol. The lysed cells were then centrifuged at 1500 g for 15 min at 0° C. The supernatants were collected for analysis by quantitative immunoblotting. For long term storage, the supernatant was flash frozen and stored at −80° C. Protein concentrations of cell lysates were determined using Pierce™ BCA Protein Assay Kit (ThermoFisher).
# (§2) Cell lysates containing a quarter of a volume of 4× NuPAGE LDS sample buffer (NP0007) supplemented with 5% β-mercaptoethanol, were heated at 95° C. for 5 minutes. 15 to 20 μg of samples were loaded onto pre-cast 4-12% Bis-Tris midi 20W or 26W gels (Thermofisher Scientific®, Cat #WG1402BOX or WG1403BOX) and resolved at 130 V for 2 hours with NuPAGE MOPS SDS running buffer (Thermofisher Scientific® Cat #NP0001-02). Proteins were electrophoretically transferred onto a 0.45 μm nitrocellulose membrane (GE Healthcare, Amersham Protran® Supported 0.45 mm NC) at 90 V for 90 min on ice in transfer buffer (48 mM Tris base and 39 mM glycine supplemented with 20% methanol). The transferred membrane was blocked with 5% (w/v) skim milk powder dissolved in tris-buffered saline with tween (TBS-T) (50 mM Tris base, 150 mM sodium chloride (NaCl), 0.1% (v/v) Tween-20) at room temperature for 1 hour. Membranes were washed three times with TBS-T and were incubated in primary antibody overnight at 4° C. Prior to secondary antibody incubation, membranes were washed three times for 15 minutes with TBS-T. The membranes were incubated with secondary antibody for 1 hour at room temperature, protected from light. Thereafter, the membranes were washed with TBS-T three times with a 15-minute incubation for each wash, and protein bands were acquired via near-infrared fluorescent detection using the Odyssey CLx imaging system and quantified using Image Studio software. Graphs were generated using Graphpad Prism version 8 software.
# Monoclonal rabbit LRRK2 Ser935 (Cat #UDD2) was purified by MRC PPU Reagents and Services at the University of Dundee and was used at a final concentration of 1 μg/ml. Total LRRK2 (C-terminus) was from Antibodies Inc./Neuromab (Cat #75-253) and was diluted 1:1000. […]
# LRRK2 = LRRK2 (Homo sapiens, UniProt Q5S007); assay: LRRK2 degradation in PBMC; type: cell-based; parameters: endogenous in cells; host or cells: human peripheral blood mononuclear cells (PBMC)
# LRRK2, sequence (Q5S007 whole entry): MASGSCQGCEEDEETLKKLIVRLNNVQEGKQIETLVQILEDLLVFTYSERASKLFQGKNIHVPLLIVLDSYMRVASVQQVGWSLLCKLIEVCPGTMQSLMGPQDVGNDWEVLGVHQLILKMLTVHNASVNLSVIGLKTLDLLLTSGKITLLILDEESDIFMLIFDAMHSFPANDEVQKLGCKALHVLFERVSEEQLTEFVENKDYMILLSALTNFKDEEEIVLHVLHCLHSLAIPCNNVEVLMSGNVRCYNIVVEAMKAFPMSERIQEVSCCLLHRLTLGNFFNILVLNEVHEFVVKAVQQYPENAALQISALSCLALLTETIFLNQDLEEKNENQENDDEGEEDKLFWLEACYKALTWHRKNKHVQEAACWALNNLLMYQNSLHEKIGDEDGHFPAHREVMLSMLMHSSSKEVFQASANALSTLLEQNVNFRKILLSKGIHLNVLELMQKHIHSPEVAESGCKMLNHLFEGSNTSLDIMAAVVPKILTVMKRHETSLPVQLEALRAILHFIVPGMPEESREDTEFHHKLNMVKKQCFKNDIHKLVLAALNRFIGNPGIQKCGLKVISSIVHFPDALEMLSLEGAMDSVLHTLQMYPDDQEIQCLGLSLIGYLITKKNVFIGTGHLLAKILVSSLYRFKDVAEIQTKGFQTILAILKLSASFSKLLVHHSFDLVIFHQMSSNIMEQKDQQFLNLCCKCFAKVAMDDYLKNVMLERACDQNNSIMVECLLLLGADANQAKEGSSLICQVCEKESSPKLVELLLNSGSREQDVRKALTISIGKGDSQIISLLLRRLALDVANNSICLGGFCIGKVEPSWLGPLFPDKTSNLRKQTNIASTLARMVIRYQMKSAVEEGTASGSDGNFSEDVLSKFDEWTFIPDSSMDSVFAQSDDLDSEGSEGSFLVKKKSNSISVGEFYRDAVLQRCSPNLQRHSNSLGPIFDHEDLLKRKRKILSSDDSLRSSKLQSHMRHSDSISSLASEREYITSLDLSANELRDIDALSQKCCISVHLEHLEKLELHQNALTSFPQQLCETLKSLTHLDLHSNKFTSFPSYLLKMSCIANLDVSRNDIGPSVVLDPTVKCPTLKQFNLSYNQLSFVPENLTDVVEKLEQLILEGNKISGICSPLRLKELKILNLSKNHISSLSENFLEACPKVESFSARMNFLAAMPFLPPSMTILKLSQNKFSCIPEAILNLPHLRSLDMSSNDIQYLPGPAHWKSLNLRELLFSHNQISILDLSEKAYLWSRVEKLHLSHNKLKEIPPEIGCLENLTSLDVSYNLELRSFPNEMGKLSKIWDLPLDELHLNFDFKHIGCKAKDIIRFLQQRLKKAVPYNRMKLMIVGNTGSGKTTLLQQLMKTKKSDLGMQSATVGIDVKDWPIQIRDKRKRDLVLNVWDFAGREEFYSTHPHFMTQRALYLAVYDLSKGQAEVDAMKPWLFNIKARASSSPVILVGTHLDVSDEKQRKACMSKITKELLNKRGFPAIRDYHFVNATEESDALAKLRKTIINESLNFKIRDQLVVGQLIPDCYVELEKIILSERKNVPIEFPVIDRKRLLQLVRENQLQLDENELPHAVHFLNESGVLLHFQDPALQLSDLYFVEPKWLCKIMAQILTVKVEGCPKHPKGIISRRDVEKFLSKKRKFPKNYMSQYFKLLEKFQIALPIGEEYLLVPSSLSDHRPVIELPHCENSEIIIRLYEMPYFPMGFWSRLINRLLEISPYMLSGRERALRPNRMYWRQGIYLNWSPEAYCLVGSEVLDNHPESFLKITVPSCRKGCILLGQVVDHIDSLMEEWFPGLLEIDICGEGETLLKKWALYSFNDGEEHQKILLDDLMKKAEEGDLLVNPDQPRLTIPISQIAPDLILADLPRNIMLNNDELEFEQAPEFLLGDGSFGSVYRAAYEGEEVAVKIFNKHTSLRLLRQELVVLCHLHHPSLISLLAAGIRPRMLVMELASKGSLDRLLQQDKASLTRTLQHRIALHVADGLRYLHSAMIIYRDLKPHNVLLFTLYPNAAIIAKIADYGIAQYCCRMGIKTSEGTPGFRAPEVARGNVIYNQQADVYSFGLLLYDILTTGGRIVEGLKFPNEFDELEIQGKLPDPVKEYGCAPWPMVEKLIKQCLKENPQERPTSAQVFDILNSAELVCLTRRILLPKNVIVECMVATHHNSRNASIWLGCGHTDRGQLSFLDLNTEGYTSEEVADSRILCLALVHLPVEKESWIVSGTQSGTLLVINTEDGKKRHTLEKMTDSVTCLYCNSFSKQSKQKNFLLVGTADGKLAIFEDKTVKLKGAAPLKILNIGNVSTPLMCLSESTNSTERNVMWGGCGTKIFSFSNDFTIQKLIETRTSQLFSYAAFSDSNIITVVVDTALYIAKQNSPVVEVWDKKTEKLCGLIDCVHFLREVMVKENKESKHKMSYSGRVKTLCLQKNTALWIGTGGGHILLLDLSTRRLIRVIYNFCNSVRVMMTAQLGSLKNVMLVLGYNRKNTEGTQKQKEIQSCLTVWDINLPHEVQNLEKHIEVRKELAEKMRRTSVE
# Experimental: as §1, §2
# Monoclonal rabbit LRRK2 Ser935 (Cat #UDD2) was purified by MRC PPU Reagents and Services at the University of Dundee and was used at a final concentration of 1 μg/ml. Total LRRK2 (C-terminus) was from Antibodies Inc./Neuromab (Cat #75-253) and was diluted 1:1000. The MJFF monoclonal rabbit Rab10 pThr73, which was characterized previously (Lis et al., Biochem J. 2018 Jan. 2; 475(1):1-22.) was purchased from Abcam Inc. (ab230261) and diluted 1:1000. Mouse monoclonal alpha-tubulin (#3873) was purchased from Cell Signaling Technology and used at 1:1000. The mouse monoclonal anti-Rab10 total antibody was purchased from Nanotools (#0680-100/Rab10-605B11) and was used at a final concentration of 1 μg/ml. Mouse monoclonal Hif-1α was purchased from R&D Systems (Cat #MAB1536) and was diluted 1:1000.
# LRRK2 pSer935 = assay: LRRK2 Ser935 dephosphorylation in PBMC; type: cell-based, human; conditions: time course at 300 nM
# Experimental: PBMC cells were separated from human blood following existing protocol (dx.doi.org/10.17504/protocols.io.bnhxmb7n) and pelleted by centrifugation at 1000 g for 2 min. The supernatant was discarded and the PBMC pellet was resuspended in PBS containing 2% FBS for washing. The suspension was centrifuged at 1000 g for 2 min again and the PBMC pellet was resuspended in RPMI-1640 (Gibco) media supplemented with 10% FBS. The cells were then seeded into 6-well plates and treated with testing compounds at indicated concentrations and time period. After treatment, the cells were collected into 2-ml Eppendorf tube and centrifuged at 500 g for 2 min to pellet the cells, the supernatant was discarded, and the pellet was resuspended in 1 ml PBS and centrifuged at 500 g for 2 min again. […] The supernatants were collected for analysis by quantitative immunoblotting. […] Protein concentrations of cell lysates were determined using Pierce™ BCA Protein Assay Kit (ThermoFisher).
# Cell lysates containing a quarter of a volume of 4× NuPAGE LDS sample buffer (NP0007) supplemented with 5% β-mercaptoethanol, were heated at 95° C. for 5 minutes. […] Thereafter, the membranes were washed with TBS-T three times with a 15-minute incubation for each wash, and protein bands were acquired via near-infrared fluorescent detection using the Odyssey CLx imaging system and quantified using Image Studio software. […]
# [1] = Stability in mouse hepatocytes; type: in vitro ADME; conditions: read-out: T1/2 in mouse hepatocytes
# [2] = Stability in mouse liver microsome; type: in vitro ADME; conditions: liver microsomes, read-out: T1/2 in mouse liver microsome
EC50 (Rab10 pThr73; 4 h treatment),LRRK2 degradation in PBMC (in words) (LRRK2; 4 h treatment),LRRK2 degradation in PBMC (in words) (LRRK2; time course at 300 nM),Structure (SMILES),EC50 (Rab10 pThr73; 24 h treatment),LRRK2 Ser935 and Rab10 Thr73 dephosphorylation in PBMC (in words) (Rab10 pThr73; time course at 300 nM),LRRK2 degradation in PBMC (in words) (LRRK2; 24 h treatment),T1/2 of LRRK2 dephosphorylation in PBMC (LRRK2 pSer935),half-life [1],half-life [2],T1/2 of Rab10 dephosphorylation in PBMC (Rab10 pThr73; time course at 300 nM),DC50 (LRRK2; 4 h treatment),DC50 (LRRK2; 24 h treatment),Dmax of LRRK2 degradation in PBMC (LRRK2; 24 h treatment),T1/2 of LRRK2 degradation in PBMC (LRRK2; time course at 300 nM)
> 3000 nM,cannot degrade LRRK2,cannot degrade LRRK2,"CNc1nc(Nc2ccc(C(=O)N3CCN(C[C@H]4CC[C@H](CSC(C)(C)[C@H](NC(=O)C5(F)CC5)C(=O)N5C[C@@H](O)CC5C(=O)NCc5ccc(-c6scnc6C)cc5)CC4)CC3)cc2OC)ncc1Cl (stereo partly drawn) [Cis-XL01126, (2S,4S)-1-((R)-3-((((1r,4R)-4-((4-(4-((5-chloro-4-(methylamino)pyrimidin-2-yl)amino)-3-methoxybenzoyl)piperazin-1-yl)methyl)cyclohexyl)methyl)thio)-2-(1-fluorocyclopropane-1-carboxamido)-3-methylbutanoyl)-4-hydroxy-N-(4-(4-methylthiazol-5-yl)benzyl)pyrrolidine-2-carboxamide]",705 nM,barely inhibits the phosphorylation; also recorded: induced little LRRK2 and Rab10 dephosphorylation,degraded little LRRK2; also recorded: cannot degrade LRRK2,–,–,–,–,–,–,–,–
–,–,–,"CNc1nc(Nc2ccc(C(=O)N3CCN(C[C@H]4CC[C@H](CSC(C)(C)[C@H](NC(=O)C5(F)CC5)C(=O)N5C[C@H](O)CC5C(=O)NCc5ccc(-c6scnc6C)cc5)CC4)CC3)cc2OC)ncc1Cl (stereo partly drawn) [XL01126, (2S,4R)-1-((R)-3-((((1R,4R)-4-((4-(4-((5-chloro-4-(methylamino)pyrimidin-2-yl)amino)-3-methoxybenzoyl)piperazin-1-yl)methyl)cyclohexyl)methyl)thio)-2-(1-fluorocyclopropane-1-carboxamido)-3-methylbutanoyl)-4-hydroxy-N-(4-(4-methylthiazol-5-yl)benzyl)pyrrolidine-2-carboxamide]",20 nM,–,–,1 h,5.24 h,3.65 min,0.38 h,72 nM,17 nM,80-90%,2.4 h
